{
  "source": "the NIST ThermoML archive (doi:10.1016/j.jct.2017.06.001)",
  "assay": "xn = mol fraction of the nth substance listed",
  "settings": "293.15 K, 100 kPa, Liquid; for speed of sound: Frequency=5 MHz, Pulse-echo method; for mass density: Vibrating tube method",
  "note": "Numbers after ± are expanded uncertainties.",
  "data": [
    {"smiles": "OCCCCCO", "note": "[1,5-pentanediol] + O", "values": [
      {"measurement": "speed of sound", "setting": "x1 = 0.1548", "value": "1691.8 ± 1.3", "unit": "m/s"},
      {"measurement": "speed of sound", "setting": "x1 = 0.1602", "value": "1692.6 ± 1.3", "unit": "m/s"},
      {"measurement": "speed of sound", "setting": "x1 = 0.1649", "value": "1693.2 ± 1.3", "unit": "m/s"},
      {"measurement": "speed of sound", "setting": "x1 = 0.1671", "value": "1693.5 ± 1.3", "unit": "m/s"},
      {"measurement": "speed of sound", "setting": "x1 = 0.1718", "value": "1694 ± 1.3", "unit": "m/s"},
      {"measurement": "speed of sound", "setting": "x1 = 0.1738", "value": "1694.1 ± 1.3", "unit": "m/s"},
      {"measurement": "speed of sound", "setting": "x1 = 0.1776", "value": "1694.5 ± 1.3", "unit": "m/s"},
      {"measurement": "speed of sound", "setting": "x1 = 0.1807", "value": "1694.7 ± 1.3", "unit": "m/s"},
      {"measurement": "speed of sound", "setting": "x1 = 0.1846", "value": "1694.9 ± 1.3", "unit": "m/s"},
      {"measurement": "speed of sound", "setting": "x1 = 0.1875", "value": "1695.1 ± 1.3", "unit": "m/s"},
      {"measurement": "speed of sound", "setting": "x1 = 0.19", "value": "1695.2 ± 1.3", "unit": "m/s"},
      {"measurement": "speed of sound", "setting": "x1 = 0.1941", "value": "1695.4 ± 1.3", "unit": "m/s"},
      {"measurement": "speed of sound", "setting": "x1 = 0.1964", "value": "1695.5 ± 1.3", "unit": "m/s"},
      {"measurement": "speed of sound", "setting": "x1 = 0.2006", "value": "1695.5 ± 1.3", "unit": "m/s"},
      {"measurement": "speed of sound", "setting": "x1 = 0.2029", "value": "1695.6 ± 1.3", "unit": "m/s"},
      {"measurement": "speed of sound", "setting": "x1 = 0.2051", "value": "1695.6 ± 1.3", "unit": "m/s"},
      {"measurement": "speed of sound", "setting": "x1 = 0.2087", "value": "1695.7 ± 1.3", "unit": "m/s"},
      {"measurement": "speed of sound", "setting": "x1 = 0.2114", "value": "1695.7 ± 1.3", "unit": "m/s"},
      {"measurement": "speed of sound", "setting": "x1 = 0.2217", "value": "1695.6 ± 1.3", "unit": "m/s"},
      {"measurement": "speed of sound", "setting": "x1 = 0.2315", "value": "1695.4 ± 1.3", "unit": "m/s"},
      {"measurement": "speed of sound", "setting": "x1 = 0.2384", "value": "1695.2 ± 1.3", "unit": "m/s"},
      {"measurement": "speed of sound", "setting": "x1 = 0.246", "value": "1695 ± 1.3", "unit": "m/s"},
      {"measurement": "speed of sound", "setting": "x1 = 0.2552", "value": "1694.6 ± 1.4", "unit": "m/s"},
      {"measurement": "speed of sound", "setting": "x1 = 0.2648", "value": "1694.1 ± 1.4", "unit": "m/s"},
      {"measurement": "speed of sound", "setting": "x1 = 0.2739", "value": "1693.7 ± 1.4", "unit": "m/s"},
      {"measurement": "speed of sound", "setting": "x1 = 0.2857", "value": "1693 ± 1.4", "unit": "m/s"},
      {"measurement": "speed of sound", "setting": "x1 = 0.2983", "value": "1692.1 ± 1.4", "unit": "m/s"},
      {"measurement": "speed of sound", "setting": "x1 = 0.3133", "value": "1691.1 ± 1.4", "unit": "m/s"},
      {"measurement": "speed of sound", "setting": "x1 = 0.3287", "value": "1689.9 ± 1.4", "unit": "m/s"},
      {"measurement": "speed of sound", "setting": "x1 = 0.3552", "value": "1687.7 ± 1.4", "unit": "m/s"},
      {"measurement": "speed of sound", "setting": "x1 = 0.3729", "value": "1686.1 ± 1.5", "unit": "m/s"},
      {"measurement": "speed of sound", "setting": "x1 = 0.4002", "value": "1683.5 ± 1.5", "unit": "m/s"},
      {"measurement": "speed of sound", "setting": "x1 = 0.4241", "value": "1681 ± 1.5", "unit": "m/s"},
      {"measurement": "speed of sound", "setting": "x1 = 0.4527", "value": "1677.7 ± 1.6", "unit": "m/s"},
      {"measurement": "speed of sound", "setting": "x1 = 0.478", "value": "1674.7 ± 1.6", "unit": "m/s"},
      {"measurement": "speed of sound", "setting": "x1 = 0.5024", "value": "1671.6 ± 1.6", "unit": "m/s"},
      {"measurement": "speed of sound", "setting": "x1 = 0.5266", "value": "1668.4 ± 1.6", "unit": "m/s"},
      {"measurement": "speed of sound", "setting": "x1 = 0.5491", "value": "1665.3 ± 1.7", "unit": "m/s"},
      {"measurement": "speed of sound", "setting": "x1 = 0.5701", "value": "1662.4 ± 1.7", "unit": "m/s"},
      {"measurement": "speed of sound", "setting": "x1 = 0.5912", "value": "1659.4 ± 1.7", "unit": "m/s"},
      {"measurement": "speed of sound", "setting": "x1 = 0.6123", "value": "1656.4 ± 1.8", "unit": "m/s"},
      {"measurement": "speed of sound", "setting": "x1 = 0.631", "value": "1653.7 ± 1.8", "unit": "m/s"},
      {"measurement": "speed of sound", "setting": "x1 = 0.656", "value": "1650.2 ± 1.8", "unit": "m/s"},
      {"measurement": "speed of sound", "setting": "x1 = 0.6746", "value": "1647.5 ± 1.8", "unit": "m/s"},
      {"measurement": "speed of sound", "setting": "x1 = 0.6953", "value": "1644.6 ± 1.9", "unit": "m/s"},
      {"measurement": "speed of sound", "setting": "x1 = 0.7147", "value": "1641.9 ± 1.9", "unit": "m/s"},
      {"measurement": "speed of sound", "setting": "x1 = 0.7344", "value": "1639.1 ± 1.9", "unit": "m/s"},
      {"measurement": "speed of sound", "setting": "x1 = 0.7546", "value": "1636.4 ± 1.9", "unit": "m/s"},
      {"measurement": "speed of sound", "setting": "x1 = 0.7797", "value": "1633 ± 2", "unit": "m/s"},
      {"measurement": "speed of sound", "setting": "x1 = 0.8014", "value": "1630.2 ± 2", "unit": "m/s"},
      {"measurement": "speed of sound", "setting": "x1 = 0.8265", "value": "1627 ± 2", "unit": "m/s"},
      {"measurement": "speed of sound", "setting": "x1 = 0.8497", "value": "1624.1 ± 2.1", "unit": "m/s"},
      {"measurement": "speed of sound", "setting": "x1 = 0.8696", "value": "1621.6 ± 2.1", "unit": "m/s"},
      {"measurement": "speed of sound", "setting": "x1 = 0.9029", "value": "1617.5 ± 2.2", "unit": "m/s"},
      {"measurement": "speed of sound", "setting": "x1 = 0.9198", "value": "1615.4 ± 2.2", "unit": "m/s"},
      {"measurement": "speed of sound", "setting": "x1 = 0.9259", "value": "1614.7 ± 2.2", "unit": "m/s"},
      {"measurement": "speed of sound", "setting": "x1 = 0.9367", "value": "1613.3 ± 2.2", "unit": "m/s"},
      {"measurement": "speed of sound", "setting": "x1 = 0.9484", "value": "1611.8 ± 2.2", "unit": "m/s"},
      {"measurement": "speed of sound", "setting": "x1 = 0.9601", "value": "1610.3 ± 2.2", "unit": "m/s"},
      {"measurement": "speed of sound", "setting": "x1 = 0.97", "value": "1609.1 ± 2.3", "unit": "m/s"},
      {"measurement": "speed of sound", "setting": "x1 = 0.9804", "value": "1607.7 ± 2.3", "unit": "m/s"},
      {"measurement": "speed of sound", "setting": "x1 = 0.9884", "value": "1606.6 ± 2.3", "unit": "m/s"},
      {"measurement": "speed of sound", "setting": "x1 = 0.9943", "value": "1605.8 ± 2.3", "unit": "m/s"},
      {"measurement": "speed of sound", "setting": "x1 = 1", "value": "1605 ± 2.3", "unit": "m/s"},
      {"measurement": "mass density", "setting": "x1 = 0.005", "value": "997.92 ± 0.53", "unit": "kg/m3"},
      {"measurement": "mass density", "setting": "x1 = 0.0101", "value": "997.99 ± 1", "unit": "kg/m3"},
      {"measurement": "mass density", "setting": "x1 = 0.0196", "value": "998.58 ± 1", "unit": "kg/m3"},
      {"measurement": "mass density", "setting": "x1 = 0.0251", "value": "999.15 ± 1", "unit": "kg/m3"},
      {"measurement": "mass density", "setting": "x1 = 0.0304", "value": "999.8 ± 1", "unit": "kg/m3"},
      {"measurement": "mass density", "setting": "x1 = 0.05", "value": "1001.74 ± 1", "unit": "kg/m3"},
      {"measurement": "mass density", "setting": "x1 = 0.0769", "value": "1003.5 ± 1.1", "unit": "kg/m3"},
      {"measurement": "mass density", "setting": "x1 = 0.1002", "value": "1004.72 ± 1.1", "unit": "kg/m3"},
      {"measurement": "mass density", "setting": "x1 = 0.1438", "value": "1005.61 ± 1.1", "unit": "kg/m3"},
      {"measurement": "mass density", "setting": "x1 = 0.1845", "value": "1005.62 ± 1.1", "unit": "kg/m3"},
      {"measurement": "mass density", "setting": "x1 = 0.2503", "value": "1004.77 ± 1.2", "unit": "kg/m3"},
      {"measurement": "mass density", "setting": "x1 = 0.3", "value": "1003.78 ± 1.2", "unit": "kg/m3"},
      {"measurement": "mass density", "setting": "x1 = 0.3343", "value": "1003.14 ± 1.3", "unit": "kg/m3"},
      {"measurement": "mass density", "setting": "x1 = 0.4171", "value": "1001.32 ± 1.4", "unit": "kg/m3"},
      {"measurement": "mass density", "setting": "x1 = 0.454", "value": "1000.44 ± 1.4", "unit": "kg/m3"}
    ]}
  ]
}
